Laboratory results published in patent EP4722207A1, “OXOISOINDOLINYL-SUBSTITUTED TETRAHYDROPYRIMIDINEDIONE DERIVATIVE AND USE THEREOF” (Gluetacs Therapeutics (Shanghai) Co., Ltd., priority 2023, dated 2024).

Assays:
GSPT1 = molecular target: T1, GSPT1 (Homo sapiens, UniProt P15170+Q96SW2); assay: Western-blot assay, substrate protein degradation in hPBMCs: GSPT1; format: cell-based; conditions: compounds at 50 nM and 500 nM, 24 hours
T1 construct: effects of the compounds of the present disclosure on the expression of target proteins in cells; endogenous in cells; host or cells: human PBMCs (hPBMCs)

IKZF2 = molecular target: T2, IKZF2 (Homo sapiens, UniProt Q96SW2+Q9UKS7); assay: Western-blot assay, substrate protein degradation in hPBMCs: IKZF2; format: cell-based; conditions: compounds at 50 nM and 500 nM, 24 hours
T2 construct: effects of the compounds of the present disclosure on the expression of target proteins in cells; endogenous in cells; host or cells: human PBMCs (hPBMCs)
T2 sequence (Q9UKS7 whole entry): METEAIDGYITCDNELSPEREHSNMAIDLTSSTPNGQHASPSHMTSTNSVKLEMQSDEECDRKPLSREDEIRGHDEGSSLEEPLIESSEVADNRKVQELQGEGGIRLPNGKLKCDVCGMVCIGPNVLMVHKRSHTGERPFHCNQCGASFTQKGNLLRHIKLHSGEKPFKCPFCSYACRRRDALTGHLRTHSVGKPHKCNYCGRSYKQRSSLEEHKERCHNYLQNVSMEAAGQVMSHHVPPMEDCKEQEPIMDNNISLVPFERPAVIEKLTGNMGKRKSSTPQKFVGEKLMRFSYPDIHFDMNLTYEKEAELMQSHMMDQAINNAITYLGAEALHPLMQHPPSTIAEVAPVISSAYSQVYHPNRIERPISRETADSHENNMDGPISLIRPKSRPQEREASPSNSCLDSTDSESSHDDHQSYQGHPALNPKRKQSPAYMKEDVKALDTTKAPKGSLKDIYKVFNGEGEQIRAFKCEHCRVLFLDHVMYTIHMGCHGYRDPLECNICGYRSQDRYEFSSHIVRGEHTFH
T2 sequence (Q96SW2 whole entry): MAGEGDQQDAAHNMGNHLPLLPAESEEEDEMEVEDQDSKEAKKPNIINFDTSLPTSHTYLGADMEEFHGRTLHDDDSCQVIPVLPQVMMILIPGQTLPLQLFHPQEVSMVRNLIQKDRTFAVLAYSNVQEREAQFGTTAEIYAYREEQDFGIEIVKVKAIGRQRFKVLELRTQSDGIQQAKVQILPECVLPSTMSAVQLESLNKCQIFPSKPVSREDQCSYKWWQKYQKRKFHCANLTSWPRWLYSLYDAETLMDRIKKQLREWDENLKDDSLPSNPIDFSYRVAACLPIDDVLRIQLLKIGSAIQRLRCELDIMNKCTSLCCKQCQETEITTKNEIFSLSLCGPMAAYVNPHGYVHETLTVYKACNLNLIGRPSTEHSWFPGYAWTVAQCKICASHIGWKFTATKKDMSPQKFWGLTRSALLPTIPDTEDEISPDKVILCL
T2 sequence (Q16531 whole entry partner): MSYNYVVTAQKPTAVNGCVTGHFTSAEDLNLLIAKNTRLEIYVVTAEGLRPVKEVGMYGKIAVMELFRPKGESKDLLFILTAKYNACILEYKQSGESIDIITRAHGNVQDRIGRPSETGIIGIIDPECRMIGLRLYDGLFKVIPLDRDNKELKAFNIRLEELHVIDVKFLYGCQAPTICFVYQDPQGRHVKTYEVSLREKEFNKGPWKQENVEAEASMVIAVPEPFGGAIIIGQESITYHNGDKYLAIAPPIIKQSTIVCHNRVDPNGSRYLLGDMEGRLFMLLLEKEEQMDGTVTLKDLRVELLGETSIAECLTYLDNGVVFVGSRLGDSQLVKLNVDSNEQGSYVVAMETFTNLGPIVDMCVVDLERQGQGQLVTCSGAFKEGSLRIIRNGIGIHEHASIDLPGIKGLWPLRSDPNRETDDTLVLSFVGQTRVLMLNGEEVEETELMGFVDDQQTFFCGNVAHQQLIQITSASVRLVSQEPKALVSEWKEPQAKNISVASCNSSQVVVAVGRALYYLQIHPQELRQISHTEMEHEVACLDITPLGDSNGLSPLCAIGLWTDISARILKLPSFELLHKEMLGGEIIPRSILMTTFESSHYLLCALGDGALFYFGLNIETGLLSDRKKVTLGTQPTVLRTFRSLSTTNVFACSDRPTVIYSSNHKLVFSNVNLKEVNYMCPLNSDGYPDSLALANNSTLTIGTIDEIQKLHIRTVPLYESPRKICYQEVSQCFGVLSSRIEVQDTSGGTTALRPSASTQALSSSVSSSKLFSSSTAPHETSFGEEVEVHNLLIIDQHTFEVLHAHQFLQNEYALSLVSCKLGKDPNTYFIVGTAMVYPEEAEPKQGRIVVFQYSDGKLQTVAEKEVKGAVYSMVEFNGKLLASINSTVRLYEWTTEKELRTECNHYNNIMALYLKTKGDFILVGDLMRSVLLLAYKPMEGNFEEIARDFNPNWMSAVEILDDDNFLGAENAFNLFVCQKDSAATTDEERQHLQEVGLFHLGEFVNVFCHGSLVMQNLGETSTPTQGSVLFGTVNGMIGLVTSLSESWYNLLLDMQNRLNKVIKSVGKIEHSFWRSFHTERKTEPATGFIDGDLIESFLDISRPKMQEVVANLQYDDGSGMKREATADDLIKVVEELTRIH

Jurkat = assay: Cell viability assay (CellTiter-Meiluncell Luminescent), tumor cell proliferation, Jurkat; conditions: Homo sapiens, 96 h, read-out: inhibitory activity (IC50, nM) against tumor cells proliferation, Jurkat
Method: (§1) On the following day, the test compounds of the present disclosure were subjected to serial dilution. […] Subsequently, 0.5 µL of the test compound dilution was transferred into the 96-well plate containing the cells, with each well containing 100 µL of cell culture medium. […] Into the 96-well plate, the diluted test compounds and corresponding detection reagents were added, resulting in final test compound concentrations of 500 nM and 10 nM, respectively.
(§2) After the cells were treated with the compounds of the present disclosure for a specified period, the cell viability assay reagent was added to the culture medium according to the kit's instructions to determine cell viability. […] All controls were treated using the same procedure as the compounds of the present disclosure. The growth inhibition curves for the compounds of the present disclosure were plotted using Prism GraphPad software, and the IC50 values were calculated therefrom.

IKZF3 = molecular target: T3, IKZF3 (Homo sapiens, UniProt Q96SW2+Q9UKT9); assay: Western-blot assay, substrate protein degradation in hPBMCs: IKZF3; format: cell-based; conditions: compounds at 50 nM and 500 nM, 24 hours
T3 construct: effects of the compounds of the present disclosure on the expression of target proteins in cells; endogenous in cells; host or cells: human PBMCs (hPBMCs)
T3 sequence (Q9UKT9 whole entry): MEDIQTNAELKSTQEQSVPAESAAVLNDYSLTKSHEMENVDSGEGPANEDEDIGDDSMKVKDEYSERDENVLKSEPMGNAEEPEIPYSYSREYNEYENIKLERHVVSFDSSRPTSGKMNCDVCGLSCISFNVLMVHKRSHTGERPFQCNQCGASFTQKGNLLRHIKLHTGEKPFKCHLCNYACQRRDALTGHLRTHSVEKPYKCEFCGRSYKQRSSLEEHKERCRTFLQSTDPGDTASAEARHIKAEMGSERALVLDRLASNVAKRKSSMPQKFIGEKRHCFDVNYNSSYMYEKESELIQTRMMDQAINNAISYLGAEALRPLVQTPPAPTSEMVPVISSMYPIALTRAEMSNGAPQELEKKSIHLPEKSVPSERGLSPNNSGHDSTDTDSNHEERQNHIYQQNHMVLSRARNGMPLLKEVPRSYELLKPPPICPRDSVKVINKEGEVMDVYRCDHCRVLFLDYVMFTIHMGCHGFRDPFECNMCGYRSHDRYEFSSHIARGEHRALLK
T3 sequence (Q96SW2 whole entry): as the sequence (Q96SW2 whole entry) above
T3 sequence (Q16531 whole entry partner): as the sequence (Q16531 whole entry partner) above

WEE1 = molecular target: T4, WEE1 (Homo sapiens, UniProt P30291+Q96SW2); assay: Western-blot assay, substrate protein degradation in hPBMCs: WEE1; format: cell-based; conditions: compounds at 50 nM and 500 nM, 24 hours
T4 construct: effects of the compounds of the present disclosure on the expression of target proteins in cells; endogenous in cells; host or cells: human PBMCs (hPBMCs)
T4 sequence (P30291 whole entry): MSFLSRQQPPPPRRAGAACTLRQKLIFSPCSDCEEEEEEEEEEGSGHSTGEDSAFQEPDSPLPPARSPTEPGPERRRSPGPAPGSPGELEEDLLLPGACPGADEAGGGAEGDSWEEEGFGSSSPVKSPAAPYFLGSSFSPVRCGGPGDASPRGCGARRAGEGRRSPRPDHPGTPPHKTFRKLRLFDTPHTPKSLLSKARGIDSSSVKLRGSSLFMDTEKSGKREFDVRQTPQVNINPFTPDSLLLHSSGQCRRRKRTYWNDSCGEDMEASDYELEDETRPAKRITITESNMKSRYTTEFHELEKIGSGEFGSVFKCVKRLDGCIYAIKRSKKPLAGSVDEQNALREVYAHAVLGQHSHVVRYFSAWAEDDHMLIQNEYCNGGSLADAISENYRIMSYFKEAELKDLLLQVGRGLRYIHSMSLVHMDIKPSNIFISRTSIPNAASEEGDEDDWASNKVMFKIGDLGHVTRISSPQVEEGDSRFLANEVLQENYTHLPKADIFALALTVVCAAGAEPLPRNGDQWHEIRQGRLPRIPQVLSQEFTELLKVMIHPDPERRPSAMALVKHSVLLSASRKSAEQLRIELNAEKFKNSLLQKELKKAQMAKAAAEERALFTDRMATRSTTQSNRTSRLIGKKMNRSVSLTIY
T4 sequence (Q96SW2 whole entry): as the sequence (Q96SW2 whole entry) above
T4 sequence (Q16531 whole entry partner): as the sequence (Q16531 whole entry partner) above

IKZF1 = molecular target: T5, IKZF1 (Homo sapiens, UniProt Q13422+Q96SW2); assay: Western-blot assay, substrate protein degradation in hPBMCs: IKZF1; format: cell-based; conditions: compounds at 50 nM and 500 nM, 24 hours
T5 construct: effects of the compounds of the present disclosure on the expression of target proteins in cells; endogenous in cells; host or cells: human PBMCs (hPBMCs)
T5 sequence (Q13422 whole entry): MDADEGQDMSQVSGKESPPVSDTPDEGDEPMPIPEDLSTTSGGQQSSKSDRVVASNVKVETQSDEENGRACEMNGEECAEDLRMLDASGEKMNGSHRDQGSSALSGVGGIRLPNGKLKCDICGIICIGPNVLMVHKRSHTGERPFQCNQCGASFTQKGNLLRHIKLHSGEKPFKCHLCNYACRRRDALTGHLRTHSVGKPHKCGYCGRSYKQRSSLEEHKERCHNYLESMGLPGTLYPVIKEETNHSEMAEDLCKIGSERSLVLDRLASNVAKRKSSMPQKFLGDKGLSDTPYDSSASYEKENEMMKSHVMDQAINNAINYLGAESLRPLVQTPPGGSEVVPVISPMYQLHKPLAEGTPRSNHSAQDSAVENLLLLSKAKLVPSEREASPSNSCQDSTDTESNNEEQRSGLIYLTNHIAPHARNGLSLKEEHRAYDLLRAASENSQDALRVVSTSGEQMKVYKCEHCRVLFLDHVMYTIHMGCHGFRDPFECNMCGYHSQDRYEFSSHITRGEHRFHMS
T5 sequence (Q96SW2 whole entry): as the sequence (Q96SW2 whole entry) above
T5 sequence (Q16531 whole entry partner): as the sequence (Q16531 whole entry partner) above

CK1α = molecular target: T6, CK1α (Homo sapiens, UniProt P48729+Q96SW2); assay: Western-blot assay, substrate protein degradation in hPBMCs: CK1α; format: cell-based; conditions: compounds at 50 nM and 500 nM, 24 hours
T6 construct: effects of the compounds of the present disclosure on the expression of target proteins in cells; endogenous in cells; host or cells: human PBMCs (hPBMCs)
T6 sequence (P48729 whole entry): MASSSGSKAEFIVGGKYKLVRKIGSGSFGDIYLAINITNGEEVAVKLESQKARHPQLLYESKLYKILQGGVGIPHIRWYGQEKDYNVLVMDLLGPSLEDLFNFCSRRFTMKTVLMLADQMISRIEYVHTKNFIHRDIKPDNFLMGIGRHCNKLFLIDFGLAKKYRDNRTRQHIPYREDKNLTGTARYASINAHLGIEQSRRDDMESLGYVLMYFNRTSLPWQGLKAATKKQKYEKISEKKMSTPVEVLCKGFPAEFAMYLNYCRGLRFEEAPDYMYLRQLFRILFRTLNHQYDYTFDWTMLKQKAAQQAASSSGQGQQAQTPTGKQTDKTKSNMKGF
T6 sequence (Q96SW2 whole entry): as the sequence (Q96SW2 whole entry) above
T6 sequence (Q16531 whole entry partner): as the sequence (Q16531 whole entry partner) above

MGC803 = assay: Cell viability assay (CellTiter-Meiluncell Luminescent), tumor cell proliferation, MGC803; conditions: Homo sapiens, MGC-803, 96 h, read-out: inhibitory activity (IC50, nM) against tumor cells proliferation, MGC803
Method: as §1, §2

MM.1S = assay: Cell viability assay (CellTiter-Meiluncell Luminescent), tumor cell proliferation, MM.1S; conditions: Homo sapiens, MM1.S, 96 h, read-out: inhibitory activity (IC50, nM) against tumor cells proliferation, MM.1S

Structure (SMILES)	GSPT1 substrate protein remaining % (GSPT1)	IKZF2 substrate protein remaining % (IKZF2)	IC50 (Jurkat) [nM]	IKZF3 substrate protein remaining % (IKZF3)	WEE1 substrate protein remaining % (WEE1)	IKZF1 substrate protein remaining % (IKZF1)	CK1α substrate protein remaining % (CK1α)	IC50 (MGC803) [nM]	IC50 (MM.1S) [nM]
O=C1CCN(N2Cc3cc(CN4CCN(c5cccc6sccc56)CC4)ccc3C2=O)C(=O)N1 [GT-04866, 1-(5-((4-(benzo[b]thiophen-4-yl)piperazin-1-yl)methyl)-1-oxoisoindolin-2-yl)dihydropyrimidine-2,4(1H,3H)-dione]	A ("A" is defined as 0% ≤ substrate protein remaining % ≤ 80%)	B ("B" is defined as 80%< substrate protein remaining %≤ 100%)	300 to 500	B ("B" is defined as 80%< substrate protein remaining %≤ 100%)	A ("A" is defined as 0% ≤ substrate protein remaining % ≤ 80%)	A ("A" is defined as 0% ≤ substrate protein remaining % ≤ 80%)	B ("B" is defined as 80%< substrate protein remaining %≤ 100%)	300 to 500	100 to 300
O=C1CCN(N2Cc3cc(CN4CC=C(c5cccs5)CC4)ccc3C2=O)C(=O)N1 [GT-04868, 1-(1-oxo-5-((4-(thiophen-2-yl)-3,6-dihydropyridin-1(2H)-yl)methyl)isoindolin-2-yl)dihydropyrimidine-2,4(1H,3H)-dione]	A ("A" is defined as 0% ≤ substrate protein remaining % ≤ 80%)	B ("B" is defined as 80%< substrate protein remaining %≤ 100%)	300 to 500	B ("B" is defined as 80%< substrate protein remaining %≤ 100%)	A ("A" is defined as 0% ≤ substrate protein remaining % ≤ 80%)	A ("A" is defined as 0% ≤ substrate protein remaining % ≤ 80%)	A ("A" is defined as 0% ≤ substrate protein remaining % ≤ 80%)	300 to 500	100 to 300
Cc1ccc(C2=CCN(Cc3ccc4c(c3)CN(N3CCC(=O)NC3=O)C4=O)CC2)s1 [GT-04869, 1-(5-((4-(5-methylthiophen-2-yl)-3,6-dihydropyridin-1(2H)-yl)methyl)-1-oxoisoindolin-2-yl)dihydropyrimidine-2,4(1H,3H)-dione]	A ("A" is defined as 0% ≤ substrate protein remaining % ≤ 80%)	A ("A" is defined as 0% ≤ substrate protein remaining % ≤ 80%)	300 to 500	A ("A" is defined as 0% ≤ substrate protein remaining % ≤ 80%)	A ("A" is defined as 0% ≤ substrate protein remaining % ≤ 80%)	A ("A" is defined as 0% ≤ substrate protein remaining % ≤ 80%)	B ("B" is defined as 80%< substrate protein remaining %≤ 100%)	300 to 500	50 to 100
Cc1ccsc1C1=CCN(Cc2ccc3c(c2)CN(N2CCC(=O)NC2=O)C3=O)CC1 [GT-04870, 1-(5-((4-(3-methylthiophen-2-yl)-3,6-dihydropyridin-1(2H)-yl)methyl)-1-oxoisoindolin-2-yl)dihydropyrimidine-2,4(1H,3H)-dione]	A ("A" is defined as 0% ≤ substrate protein remaining % ≤ 80%)	A ("A" is defined as 0% ≤ substrate protein remaining % ≤ 80%)	100 to 300	A ("A" is defined as 0% ≤ substrate protein remaining % ≤ 80%)	A ("A" is defined as 0% ≤ substrate protein remaining % ≤ 80%)	A ("A" is defined as 0% ≤ substrate protein remaining % ≤ 80%)	B ("B" is defined as 80%< substrate protein remaining %≤ 100%)	100 to 300	50 to 100
O=C1CCN(N2Cc3cc(CN4CC=C(c5ccsc5)CC4)ccc3C2=O)C(=O)N1 [GT-04871, 1-(1-oxo-5-((4-(thiophen-3-yl)-3,6-dihydropyridin-1(2H)-yl)methyl)isoindolin-2-yl)dihydropyrimidine-2,4(1H,3H)-dione]	A ("A" is defined as 0% ≤ substrate protein remaining % ≤ 80%)	B ("B" is defined as 80%< substrate protein remaining %≤ 100%)	300 to 500	B ("B" is defined as 80%< substrate protein remaining %≤ 100%)	A ("A" is defined as 0% ≤ substrate protein remaining % ≤ 80%)	A ("A" is defined as 0% ≤ substrate protein remaining % ≤ 80%)	B ("B" is defined as 80%< substrate protein remaining %≤ 100%)	300 to 500	100 to 300
Cc1cscc1C1=CCN(Cc2ccc3c(c2)CN(N2CCC(=O)NC2=O)C3=O)CC1 [GT-04872, 1-(5-((4-(4-methylthiophen-3-yl)-3,6-dihydropyridin-1(2H)-yl)methyl)-1-oxoisoindolin-2-yl)dihydropyrimidine-2,4(1H,3H)-dione]	A ("A" is defined as 0% ≤ substrate protein remaining % ≤ 80%)	B ("B" is defined as 80%< substrate protein remaining %≤ 100%)	100 to 300	B ("B" is defined as 80%< substrate protein remaining %≤ 100%)	A ("A" is defined as 0% ≤ substrate protein remaining % ≤ 80%)	A ("A" is defined as 0% ≤ substrate protein remaining % ≤ 80%)	B ("B" is defined as 80%< substrate protein remaining %≤ 100%)	100 to 300	10 to 50
Cc1cc(C2=CCN(Cc3ccc4c(c3)CN(N3CCC(=O)NC3=O)C4=O)CC2)cs1 [GT-04873, 1-(5-((4-(5-methylthiophen-3-yl)-3,6-dihydropyridin-1(2H)-yl)methyl)-1-oxoisoindolin-2-yl)dihydropyrimidine-2,4(1H,3H)-dione]	A ("A" is defined as 0% ≤ substrate protein remaining % ≤ 80%)	B ("B" is defined as 80%< substrate protein remaining %≤ 100%)	100 to 300	A ("A" is defined as 0% ≤ substrate protein remaining % ≤ 80%)	A ("A" is defined as 0% ≤ substrate protein remaining % ≤ 80%)	A ("A" is defined as 0% ≤ substrate protein remaining % ≤ 80%)	B ("B" is defined as 80%< substrate protein remaining %≤ 100%)	100 to 300	50 to 100
O=C1CCN(N2Cc3cc(CN4CCN(C(c5ccccc5)c5ccccc5)CC4)ccc3C2=O)C(=O)N1 [GT-04889, 1-(5-((4-benzhydrylpiperazin-1-yl)methyl)-1-oxoisoindolin-2-yl)dihydropyrimidine-2,4(1H,3H)-dione]	A ("A" is defined as 0% ≤ substrate protein remaining % ≤ 80%)	A ("A" is defined as 0% ≤ substrate protein remaining % ≤ 80%)	300 to 500	A ("A" is defined as 0% ≤ substrate protein remaining % ≤ 80%)	A ("A" is defined as 0% ≤ substrate protein remaining % ≤ 80%)	A ("A" is defined as 0% ≤ substrate protein remaining % ≤ 80%)	B ("B" is defined as 80%< substrate protein remaining %≤ 100%)	300 to 500	100 to 300
O=C1CCN(N2Cc3cc(CN4CCC(N(c5ccccc5)c5ccccc5)CC4)ccc3C2=O)C(=O)N1 [GT-04939, 1-(5-((4-(diphenylamino)piperidin-1-yl)methyl)-1-oxoisoindolin-2-yl)dihydropyrimidine-2,4(1H,3H)-dione]	A ("A" is defined as 0% ≤ substrate protein remaining % ≤ 80%)	A ("A" is defined as 0% ≤ substrate protein remaining % ≤ 80%)	100 to 300	A ("A" is defined as 0% ≤ substrate protein remaining % ≤ 80%)	A ("A" is defined as 0% ≤ substrate protein remaining % ≤ 80%)	A ("A" is defined as 0% ≤ substrate protein remaining % ≤ 80%)	A ("A" is defined as 0% ≤ substrate protein remaining % ≤ 80%)	100 to 300	10 to 50
